{"source": "patent US20260102413A1", "about": "“TREATING PAIN ASSOCIATED WITH CENTRAL SENSITIZATION” (Medicon Pharmaceuticals, Inc., priority 2022, published 2026)", "key": {"chronic pain after LASIK": {"tested_on": "chronic pain after LASIK", "test": "PS to outer surface of eyelid in a subject after kerato-refractive surgery (LASIK)", "details": "in vivo"}, "[1]": {"tested_on": "BALB/c mice infected with HSV-1 KOS strain (PHN)", "format": "in vivo, mouse", "details": "mouse, in vivo", "experimental": "PHN was induced in mice by infecting them with the HSV-1 KOS strain virus and following established protocols (Ou et al, Front Immunol, 14, 1026269, 2023; Takasaki et al, Anesthesiology, 96 (5), 1168-74, 2002).\n; Reckitt Benckiser). Three days later, HSV-1 (10^6 PFUs in 20 μl PBS) was inoculated on the shin of the right hind paw (5×5 mm) after scarification with sandpaper. The virus was applied directly to the scarified area. The contralateral hind paw was without inoculation. Mock infection was performed using the same virus inactivated by heating at 60° C. for 1 h.\nIn a second experiment, the effect of the parent compound, sulindac, was tested in the same mouse model. Five days post-inoculation, sulindac (as a 5% gel), or vehicle control were administered topically onto both hind paws of mice three times a day for three days.\nPHN was induced in mice by infecting them with the HSV-1 KOS strain virus in line with the previous Examples.\nFive days post-inoculation, NO-sulindac (Formula XLIV) (as a 5% gel), or vehicle control were administered topically onto both hind paws of mice three times a day for three days."}, "[2]": {"tested_on": "mice with NTG-induced chronic migraine", "test": "von Frey PWT, NTG-induced chronic migraine model", "format": "in vivo, mouse", "details": "mouse, in vivo", "excerpt": "The NTG-induced chronic migraine model was used as described previously."}, "COX-1": {"target": "COX-1 (Homo sapiens, UniProt P23219)", "sequence (P23219 24-599)": "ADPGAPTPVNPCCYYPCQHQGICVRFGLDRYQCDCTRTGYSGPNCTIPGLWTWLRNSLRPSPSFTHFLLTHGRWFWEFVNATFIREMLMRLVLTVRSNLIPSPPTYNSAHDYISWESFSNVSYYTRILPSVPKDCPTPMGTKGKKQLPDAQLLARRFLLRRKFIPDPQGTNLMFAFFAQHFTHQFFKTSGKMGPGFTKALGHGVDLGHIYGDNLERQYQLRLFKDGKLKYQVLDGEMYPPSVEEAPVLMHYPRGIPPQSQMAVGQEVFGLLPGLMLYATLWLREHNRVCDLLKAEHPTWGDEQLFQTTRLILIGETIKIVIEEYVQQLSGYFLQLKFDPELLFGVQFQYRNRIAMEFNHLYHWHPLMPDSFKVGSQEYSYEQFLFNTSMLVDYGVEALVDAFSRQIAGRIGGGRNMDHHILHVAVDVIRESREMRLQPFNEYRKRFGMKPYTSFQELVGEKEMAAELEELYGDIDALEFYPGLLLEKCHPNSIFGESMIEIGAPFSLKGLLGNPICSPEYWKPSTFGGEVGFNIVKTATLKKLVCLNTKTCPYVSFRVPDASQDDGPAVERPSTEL", "details": "cited from earlier work"}, "[3]": {"format": "in vivo, mouse", "details": "mouse, in vivo", "experimental": "At 0.5, 1, 3, 5, 12, 18, and 24 h, mice (n=4-5 mice/time point) were euthanized with CO2 inhalation. Blood was drawn immediately after death. Tissues, including paw skin, paw muscle, leg muscle, the sciatic nerve and lumbar DRG bilaterally were dissected quickly, immediately frozen in liquid nitrogen and stored at −80° C. until analyzed."}, "STZ-diabetic rats": {"tested_on": "STZ-diabetic rats", "format": "in vivo, rat", "details": "rat, in vivo", "excerpt": "The animal model corresponds to that used for Example 4, but using a prevention protocol. As in Example 4, the outcome measure, determining the effect of the treatment on the prevention of mechanical allodynia, was the PWT test, using von Frey filaments. The measurements were taken at day −3, before treatment or induction of neuropathic pain associated with DPN, and again at the end of the study period (day 28).\nThe rats were randomised into treatment groups as follows, all having an average body weight of about 225 g. • 1. Group 1: naïve rats (n=6) • 2. Group 2: STZ only (n=8) • 3. Group 3: STZ plus vehicle (n=8) • 4. […] Group 5: STZ plus sulindac 0.7% (n=8) • 6. Group 6: STZ plus lidocaine cream 5% (n=8)\nEach treatment group was subjected to a PWT assessment at day −3 in order to determine the baseline of mechanical allodynia.\nFor those rats in the lidocaine treatment group, lidocaine cream was applied only once to both hind paws of the rats 30 min before the final PWT measurement on day 28. On day 0, neuropathic pain associated with DPN was induced with the administration of STZ, and the blood glucose was checked on day 3."}, "corneal neuropathic pain": {"tested_on": "corneal neuropathic pain", "test": "preliminary in vivo evidence, PS to the ocular surface, corneal neuropathic pain"}, "in vivo": {"test": "in vivo", "details": "rat", "experimental": "Approximately 800 μL of blood were collected through cardiac puncture and immediately centrifuged.\nTissue samples were harvested using separate dissection instruments for each tissue sample to avoid cross contamination, and snap frozen. The levels of the test drug were determined by HPLC.\nAs previously described (Wen et al, 2019), each plasma sample was mixed with double volume of acetonitrile and centrifuged at 13,200 rpm for 15 min. Tissue samples were weighed, ddH2O (100-300 μL, depending on tissue weight) was added, and they were homogenized. Following addition of acetonitrile (twice the volume of the homogenate), the mixture was sonicated for 10 min, centrifuged at 13,200 rpm for 15 min, and analyzed by HPLC, as reported (Wen et al, 2019).\nIt was performed following a previously reported method (Xie et al, 2012). Briefly, the HPLC system consisted of a Waters Alliance 2695 Separations Module (Milford, MA, USA) equipped with a Waters 2998 photodiode array detector (328 nm) and a Thermo Hypersil BDS C18 column (150×4.6 mm, particle size 3 μm). The mobile phase consisted of a gradient between solvent A (formic acid, CH3CN, H2O (0.1:4.9:95 v/v/v)) and solvent B (CH3CN) at a flow rate of 1 mL·min−1 at 30° C. We applied gradient elution from 30 to 100% solvent B from 0-6 min, and it was maintained at 100% solvent B until 8 min.\nThe methods are identical to those used in Example 27.\nA single dose of PN or PSA was given by oral gavage to groups of three Sprague-Dawley rats, which were euthanized and dissected according to the early example. The oral gavage solution of phosphonaproxen was prepared by dissolving in 10% DMSO and then suspending it in corn oil."}, "COX-2": {"target": "COX-2 (Homo sapiens, UniProt P35354)", "sequence (P35354 18-604)": "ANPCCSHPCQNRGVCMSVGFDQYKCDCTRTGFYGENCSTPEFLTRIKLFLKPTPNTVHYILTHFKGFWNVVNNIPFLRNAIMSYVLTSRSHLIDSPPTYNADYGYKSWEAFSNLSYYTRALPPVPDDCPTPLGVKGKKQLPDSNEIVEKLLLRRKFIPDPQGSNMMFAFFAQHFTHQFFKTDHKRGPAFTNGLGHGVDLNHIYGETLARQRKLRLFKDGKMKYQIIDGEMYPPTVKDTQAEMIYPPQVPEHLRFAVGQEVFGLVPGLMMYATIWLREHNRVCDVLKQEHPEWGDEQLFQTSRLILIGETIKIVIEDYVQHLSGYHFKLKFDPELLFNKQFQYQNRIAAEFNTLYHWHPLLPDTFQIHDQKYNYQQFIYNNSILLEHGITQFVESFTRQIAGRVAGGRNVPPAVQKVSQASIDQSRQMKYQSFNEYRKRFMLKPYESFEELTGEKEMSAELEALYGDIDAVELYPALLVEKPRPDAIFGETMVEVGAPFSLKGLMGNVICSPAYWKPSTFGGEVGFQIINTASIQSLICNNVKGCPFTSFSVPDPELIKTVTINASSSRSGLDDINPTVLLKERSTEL", "details": "cited from earlier work"}, "[4]": {"tested_on": "mice with paclitaxel-induced central sensitization", "test": "cold allodynia (acetone test), paclitaxel-induced central sensitization", "details": "mouse, in vivo", "experimental": "To determine the outcome of treatment, assessment of mechanical allodynia was performed. […] Both methods of assessing allodynia are described in Toma W, et al. Neuropharmacology 2017; 117:305-15. Mechanical and cold allodynia are determined at least one day apart in the same animal.\nThe acetone test was used. Briefly, acetone was applied onto the plantar surface of each hind paw. The time each mouse spent licking, lifting, and/or shaking the hind paw recorded over 60 seconds was the score for cold allodynia."}, "mice": {"tested_on": "mice", "details": "mouse, in vivo"}, "[5]": {"tested_on": "mice with vincristine-induced neuropathic pain", "test": "von Frey mechanical allodynia, vincristine-induced pain, topical PS", "details": "mouse, in vivo", "excerpt": "(§1) Paw withdrawn, licking or shaking were considered positive responses."}, "[6]": {"test": "drug levels in proximal and distal half of the sciatic nerve after topical PS", "format": "in vivo, mouse", "details": "mouse, in vivo", "experimental": "In a separate experiment we studied 8 mice with paclitaxel-induced PN treated with PS 8% ointment 3×/d for 2 wks. Mice were euthanized as above 30 minutes after the last dose of PS. From these mice we harvested both sciatic nerves dividing each into proximal and distal halves, and combined the corresponding halves of every two animals for assay of drug levels."}, "[7]": {"tested_on": "mice with oxaliplatin-induced neuropathic pain", "test": "von Frey mechanical allodynia, oxaliplatin-induced pain, topical PS", "details": "mouse, in vivo", "excerpt": "as §1"}, "[8]": {"tested_on": "mice given paclitaxel (CIPN prevention)", "test": "von Frey PWT, prevention of paclitaxel-induced CIPN pain, topical PS", "details": "mouse, in vivo", "experimental": "In order to establish CIPN, paclitaxel is administered at 10 mg/kg intraperitoneally into C57/BL mice. […] This dosing regimen of paclitaxel produces pain associated with CIPN with time courses that are similar to those of pain after paclitaxel administration in cancer patients.\nThe first doses were administered 2 days prior to the first administration of paclitaxel."}, "[9]": {"tested_on": "mice with chronic constriction injury of the left sciatic nerve (PTPN)", "test": "von Frey PWT, chronic constriction injury (CCI) model of PTPN, topical compounds", "format": "in vivo, mouse", "details": "Q922, PSA 5% on left hind paw 3x/day 6 days"}}, "note": "Where two headings read alike, the source gives them in different places.", "data": [{"smiles": "CCOP(=O)(OCC)OCCCCOC(=O)CC1=C(C)/C(=C/c2ccc([S+](C)[O-])cc2)c2ccc(F)cc21", "note": "(stereo not shown) [PS, phosphosulindac]", "values": [{"measurement": "effect on chronic pain after LASIK", "setting": "chronic pain after LASIK", "value": "dramatically reduced chronic pain"}, {"measurement": "PWT, g Mean ± SEM, Post-inoculation, day 5", "setting": "[1]", "value": "0.53 ± 0.06", "unit": "g"}, {"measurement": "PWT, g Mean ± SEM, Post-treatment", "setting": "[1]", "value": "0.93 ± 0.06", "unit": "g"}, {"measurement": "PWT, g Mean ± SEM, Pre-inoculation", "setting": "[1]", "value": "1.27 ± 0.19", "unit": "g"}, {"measurement": "PWT, g Mean ± SEM, Baseline", "setting": "[2]", "value": "2.28 ± 0.34", "unit": "g"}, {"measurement": "PWT, g Mean ± SEM, Day 11", "setting": "[2]", "value": "1.18 ± 0.10", "unit": "g"}, {"measurement": "inhibition of COX-1", "setting": "COX-1", "value": "does not inhibit"}, {"measurement": "detection in the systemic circulation", "setting": "[3]", "value": "no PS was detected"}, {"measurement": "von Frey, gm mean ± SEM", "setting": "STZ-diabetic rats", "value": "33.1 ± 1.6", "unit": "gm"}, {"measurement": "analgesic effect on corneal neuropathic pain", "setting": "corneal neuropathic pain", "value": "striking analgesic effect"}, {"measurement": "detection in the systemic circulation", "setting": "in vivo", "value": "No PS was detected"}, {"measurement": "T1/2", "setting": "in vivo; po, 250 mg/kg", "value": 3.3, "unit": "h"}, {"measurement": "inhibition of COX-2", "setting": "COX-2", "value": "does not inhibit"}, {"measurement": "cold allodynia score (acetone test, time licking/lifting/shaking over 60 s)", "setting": "[4]", "value": "3.1±0.4"}, {"measurement": "topical or systemic side effects", "setting": "mice", "value": "no topical or systemic side effects"}, {"measurement": "mechanical allodynia score (von Frey)", "setting": "[5]", "value": "1.5 ± 0.09", "unit": "g"}, {"measurement": "concentration in distal half of the sciatic nerve, mean ± SEM", "setting": "[6]", "value": "17.0 ± 5.1", "unit": "µM"}, {"measurement": "concentration in proximal half of the sciatic nerve, mean ± SEM", "setting": "[6]", "value": "0.9 ± 0.3", "unit": "µM"}, {"measurement": "mechanical allodynia score (von Frey) after PS treatment", "setting": "[7]", "value": "1.8 ± 0.09", "unit": "g"}, {"measurement": "PWT, gm Mean ± SEM", "setting": "[8]", "value": "0.4 ± 0.01", "unit": "gm"}, {"measurement": "mechanical allodynia score (von Frey)", "setting": "[8]", "value": "1.2 ± 0.15", "unit": "g"}]}, {"smiles": "CCOP(=O)(NCCCCNC(=O)c1ccccc1SC/C=C(\\C)CC/C=C(\\C)CCC=C(C)C)OCC", "note": "[Q922]", "values": [{"measurement": "PWT, g Mean ± SEM", "setting": "[9]", "value": "1.48 ± 0.36", "unit": "g"}]}]}
